Measurements: article PMC11739085, “A novel non-invasive murine model for rapidly testing drug activity via inhalation administration against Mycobacterium tuberculosis” (Frontiers in Pharmacology, 2025)
Values joined by “and” are separate entries in the source; they are usually repeats but may differ in a detail not shown here. Equal entries are not always repeated. “Also recorded” adds a separate entry of the source. Where two headings read alike, the source gives them in different places.

Experiments:
[1] = Pharmacokinetics in plasma via inhalation; conditions: for duration plasma concentration exceeded in vitro MIC against M. tuberculosis / peak concentration in plasma / AUC(0-t) / AUC(0-inf) / Tmax: mice
[2] = set-up: method as in Grewal et al., 2018; Grosset et al., 1992; Lyons et al., 2013; conditions: mice, oral administration; ref Grewal et al., 2018; Grosset et al., 1992; Lyons et al., 2013; cited from earlier work
[3] = test system: M. tuberculosis; conditions: stated without method or reference; cited from earlier work
[4] = test system: autoluminescent M. tuberculosis H37Rv (AlRv); format: in vivo, Mycobacterium tuberculosis
[5] = test system: autoluminescent M. tuberculosis H37Rv (AlRv); format: in vivo, Mycobacterium tuberculosis; remark: listed apart in the source
[6] = Pharmacokinetics in lung via inhalation; conditions: for duration lung concentration above in vitro MIC against M. tuberculosis: lung tissue, inhalation
[7] = test system: AlRv; assay: Published inhalation administration method using a syringe-like device in mice infected with AlRv; format: in vivo, Mycobacterium tuberculosis; conditions: unpublished data
Source text: To date, four primary research reports, encompassing three inhalation administration models, have explored the detection of anti-TB drug efficacy through airway administration ([Garcia-Contreras et al., 2007]; [Garcia-Contreras et al., 2010]; [Gonzalez-Juarrero et al., 2012]; [Verma et al., 2013]). Among these studies, only two have employed murine models for their investigations. Supplementary Table S1 presents a comprehensive comparison of the advantages and disadvantages of each report relative to our study. Compared to these existing inhalation administration model, our innovative method achieves several improvements. Firstly, it is cost-effective and user-friendly, employing mice instead of larger animals. Secondly, it eliminates the need for anesthesia in mice during administration, simplifying the instrument operation. We also endeavored to utilize a published inhalation administration method using a syringe-like device in mice infected with AlRv. However, we encountered significant challenges in administering drugs daily due to the development of swollen throats in the mice ([Gonzalez-Juarrero et al., 2012]). […] Thirdly, the results obtained are relatively objective and repeatable, thereby minimizing the influence of human factor. Fourthly, the same treatment group, consisting of six mice, is administrated daily and simultaneously. […]

[8] = in vivo; conditions: mouse, inhaled or intranasal
[9] = in vivo; conditions: mouse, inhaled or intranasal; remark: listed apart in the source
[10] = inhalation, RIF 2, INH 0.5, EMB 10 mg/mL
[11] = single inhalation, RIF 2, INH 0.5, EMB 10 mg/mL
[12] = mouse, inhaled or intranasal, AUC0-t in plasma, inhalation, t = 4 h for INH and 24 h for RIF and EMB
[13] = mouse, inhaled or intranasal, AUC0-t, single inhalation 25 min, RIF 2, INH 0.5, EMB 10 mg/mL, t = 4 h for INH, 24 h for RIF and EMB
[14] = mouse, inhaled or intranasal, AUC0-∞ in plasma, inhalation
[15] = mouse, inhaled or intranasal, AUC0-∞, single inhalation 25 min, RIF 2, INH 0.5, EMB 10 mg/mL
[16] = mouse, inhaled or intranasal, time of peak concentration in plasma post-administration, single inhalation, RIF 2, INH 0.5, EMB 10 mg/mL, first sampling point 5 min
[17] = […], RIF 2, INH 2, EMB 10 mg/mL, lungs D18
[18] = mice, RIF 2, INH 0.5, EMB 10 mg/mL
[19] = lung, mice, single inhalation, RIF 2, INH 0.5, EMB 10 mg/mL
[20] = mouse, lung, inhaled or intranasal, AUC0-t, mice, single inhalation 25 min, RIF 2, INH 0.5, EMB 10 mg/mL
[21] = mouse, lung, inhaled or intranasal, Tmax, mice, single inhalation 25 min, RIF 2, INH 0.5, EMB 10 mg/mL
[22] = mouse, lung, inhaled or intranasal, time of peak concentration in lung post-administration, mice, single inhalation, RIF 2, INH 0.5, EMB 10 mg/mL

Structure (SMILES) | duration plasma concentration exceeded in vitro MIC against M. tuberculosis [1, 10] | peak concentration in plasma [1, 11] | AUC(0-t) [1, 12] [ng·h/mL] | AUC(0-t) [1, 13] [ng·h/mL] | AUC(0-inf) [1, 14] [ng·h/mL] | AUC(0-inf) [1, 15] [ng·h/mL] | Tmax [1, 16] [min] | time of highest plasma concentration post-administration [2] [h] | in vitro minimum inhibitory concentration (MIC) [3] [µg/mL] | lung CFUs compared with BT group [4, 17] | lung RLUs compared with BT group [4, 17] | log10CFUs/lung difference to solvent group ([5]; in vivo) | lowest inhaled concentration showing anti-M. tuberculosis activity in vivo ([5]; in vivo) [mg/mL] | lung CFUs compared with BT group ([5]; in vivo) | lung RLUs compared with BT group ([5]; in vivo) | lung RLUs compared with solvent group ([5]; in vivo) | duration lung concentration above in vitro MIC against M. tuberculosis [6, 18] | peak concentration in lung [6, 19] [µg/g] | AUC(0-t) [6, 20] [ng·h/mL] | Tmax [6, 21] [min] | also measured
CC[C@@H](CO)NCCN[C@@H](CC)CO [EMB, ethambutol] | ~14 h | 28.64 ± 16.80 µg/mL and 28.64 ± 16.8 µg/mL | 103000 | 103000 | 103000 | 103000 | ≤ 5 | 1.33 | 2.00 | almost similar | nearly identical | exceeding 1.5 log10CFUs/lung | 0.625 | nearly identical | equivalent | less significant differences | ~10 h | 10.94 ± 1.63 | 47300 | 4.8 | half-life ([1]; mouse, inhaled or intranasal): 170 min; Tmax ([1]; mouse, inhaled or intranasal, Tmax, single inhalation 25 min, RIF 2, INH 0.5, EMB 10 mg/mL): 4.8 min; live RLUs compared with solvent group ([5]; in vivo): significantly lower; lung CFUs compared with solvent control ([5]; in vivo): significantly reduced; half-life ([6]; mouse, lung, inhaled or intranasal): 274 min; AUC(0-inf) ([6]; mouse, lung, inhaled or intranasal, AUC0-∞, mice, single inhalation 25 min, RIF 2, INH 0.5, EMB 10 mg/mL): 48700 ng·h/mL; Tmax [6, 22]: ≤ 5 min
NNC(=O)c1ccncc1 [INH, isoniazid] | ~3 h | 2.66 ± 0.29 µg/mL | 1570 | 1570 | 1790 | 1790 | ≤ 5 | 0.25 | 0.13 | lower | slightly lower | exceeding 1.5 log10CFUs/lung | 0.5 | lower | comparable | similar | ~0.5 h | 2.52 ± 0.81 | 337 | 15 | colonies on plates of lung suspension ([5]; […], only a fraction of the lung suspension plated): no colonies were observed; log10RLUs/lung difference to solvent group ([5]; in vivo): exceeding 1.5 log10RLUs/lung; RLUs compared with untreated control and the same mice the day before administration [7]: reduced RLUs; Tmax [8]: 4.8 min; concentration in the lungs 30 min post-administration ([6]; lung, mice, inhalation 0.5 mg/mL, 30 min post-administration): nearly undetectable; also recorded: near-zero; AUC(0-t) ([6]; mouse, lung, inhaled or intranasal, 0.5 mg/mL, AUC0-t in the lungs, mice, inhalation 0.5 mg/mL): 340 ng·h/mL; Tmax [6, 22]: ≤ 15 min
CO[C@H]1/C=C/O[C@@]2(C)Oc3c(C)c(O)c4c(O)c(c(/C=N/N5CCN(C)CC5)c(O)c4c3C2=O)NC(=O)/C(C)=C\C=C\[C@H](C)[C@H](O)[C@@H](C)[C@@H](O)[C@@H](C)[C@H](OC(C)=O)[C@@H]1C [RIF, rifampicin] | approximately 24 h | – | – | – | – | – | – | – | 0.06 | – | – | exceeding 1.5 log10CFUs/lung | 0.5 | – | – | comparable | approximately 24 h | – | – | – | Tmax ([9]; Tmax): 4.8 min; Tmax ([9]; time of peak concentration in lung post-administration): 5 min; lung CFUs compared with BT group ([4]; in vivo): higher; bactericidal activity by lung suspension RLU and CFU ([5]; in vivo): failed to demonstrate bactericidal activity; log10RLUs/lung difference to solvent group ([5]; in vivo): exceeding 1.5 log10RLUs/lung; lung CFUs compared with solvent group ([5]; in vivo): slightly significantly lower; also recorded: approximately comparable; AUC(0-t) ([8]; AUC0-t in plasma): 19000 ng·h/mL; AUC(0-inf) ([8]; AUC0-∞ in plasma): 21000 ng·h/mL; Tmax ([8]; Tmax): 4.8 min; Tmax ([8]; time of peak concentration in plasma post-administration): 5 min
